Source: ChEMBL document CHEMBL5120950, “Discovery and Mechanistic Study of Mycobacterium tuberculosis PafA Inhibitors” (J Med Chem, 2022)
In brackets after ≈: the same amount, converted by molar mass. Activity calls are given as the source filed them. The rule behind the calls is not given here.

What was measured:
[1] = biological target: T1, Pup--protein ligase (Mycobacterium tuberculosis) (UniProt P9WNU7); experiment: Inhibition of Mycobacterium tuberculosis PafA expressed in Escherichia coli BL-21(DE3) assessed as inhibition of pup-ylation using Mtb PanB substrate at 20 uM by SDS-PAGE analysis
T1 sequence (whole entry): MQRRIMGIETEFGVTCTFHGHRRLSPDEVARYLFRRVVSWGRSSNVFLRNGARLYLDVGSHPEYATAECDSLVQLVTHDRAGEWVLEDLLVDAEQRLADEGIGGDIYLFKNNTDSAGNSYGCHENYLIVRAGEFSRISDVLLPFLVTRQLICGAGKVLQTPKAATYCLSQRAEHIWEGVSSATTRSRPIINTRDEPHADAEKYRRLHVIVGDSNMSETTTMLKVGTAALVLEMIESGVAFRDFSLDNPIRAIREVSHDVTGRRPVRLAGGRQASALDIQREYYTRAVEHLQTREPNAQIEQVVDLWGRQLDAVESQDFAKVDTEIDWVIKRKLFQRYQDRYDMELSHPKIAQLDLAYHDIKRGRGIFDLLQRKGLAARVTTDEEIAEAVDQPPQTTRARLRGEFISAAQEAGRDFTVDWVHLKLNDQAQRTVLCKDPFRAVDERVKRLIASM

[2] = biological target: T1, Pup--protein ligase (Mycobacterium tuberculosis); experiment: Inhibition of Mycobacterium tuberculosis PafA expressed in Escherichia coli BL-21(DE3) assessed as inhibition of pup-ylation using Mtb DHFR substrate at 20 uM by SDS-PAGE analysis
[3] = biological target: T1, Pup--protein ligase (Mycobacterium tuberculosis); experiment: Inhibition of Mycobacterium tuberculosis PafA expressed in Escherichia coli BL-21(DE3) assessed as inhibition of pup-ylation using Mtb InhA substrate at 20 uM by SDS-PAGE analysis
[4] = biological target: T1, Pup--protein ligase (Mycobacterium tuberculosis); experiment: Inhibition of Mycobacterium tuberculosis PafA expressed in Escherichia coli BL-21(DE3) assessed as inhibition of pup-ylation using Mtb KasA substrate at 20 uM by SDS-PAGE analysis
[5] = biological target: T1, Pup--protein ligase (Mycobacterium tuberculosis); experiment: Inhibition of Mycobacterium tuberculosis PafA expressed in Escherichia coli BL-21(DE3) assessed as inhibition of pup-ylation using Mtb PknB substrate at 20 uM by SDS-PAGE analysis
[6] = biological target: T1, Pup--protein ligase (Mycobacterium tuberculosis); experiment: Binding affinity to Mycobacterium tuberculosis PafA expressed in Escherichia coli BL-21(DE3) assessed as increase in thermal stability by measuring change in melting temperature in at 50 uM by CESTA analysis
[7] = biological target: T2, Pup--protein ligase (Corynebacterium glutamicum) (UniProt Q8NQE1); experiment: Inhibition of Corynebacterium glutamicum PafA expressed in Escherichia coli BL-21(DE3) assessed as inhibition of pup-ylation using Mtb PanB substrate at 20 uM by SDS-PAGE analysis
T2 sequence (whole entry): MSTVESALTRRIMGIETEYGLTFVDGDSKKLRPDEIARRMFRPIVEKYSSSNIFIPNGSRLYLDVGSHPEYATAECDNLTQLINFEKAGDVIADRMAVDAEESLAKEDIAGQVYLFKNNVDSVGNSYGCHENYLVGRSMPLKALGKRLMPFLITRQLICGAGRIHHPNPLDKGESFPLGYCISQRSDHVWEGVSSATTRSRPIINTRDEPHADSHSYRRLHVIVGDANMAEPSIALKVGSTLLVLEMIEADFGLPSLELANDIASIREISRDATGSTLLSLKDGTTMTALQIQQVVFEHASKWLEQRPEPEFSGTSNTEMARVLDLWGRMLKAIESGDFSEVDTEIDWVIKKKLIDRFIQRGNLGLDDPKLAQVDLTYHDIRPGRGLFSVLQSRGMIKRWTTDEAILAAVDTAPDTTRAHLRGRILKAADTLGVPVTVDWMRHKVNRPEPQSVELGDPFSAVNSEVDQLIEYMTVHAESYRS

[8] = biological target: T1, Pup--protein ligase (Mycobacterium tuberculosis); experiment: Binding affinity to Mycobacterium tuberculosis PafA expressed in Escherichia coli BL-21(DE3) assessed as increase in thermal stability at 40 uM incubated for 15 mins at 25 degC followed by incubated at 52 to 72 degC for 5 mins by CESTA analysis
[9] = tested on: Mycobacterium tuberculosis; experiment: Antimycobacterial activity against Mycobacterium tuberculosis H37Ra assessed as inhibition of growth measured after 7 days by microplate reader; format: functional; conditions: 168 h, time 7 day
Pup--protein ligase [10] = biological target: T3, Pup--protein ligase (Mycobacterium tuberculosis, UniProt P9WNU7); experiment: Inhibition of Mycobacterium tuberculosis PafA expressed in Escherichia coli BL-21(DE3) assessed as inhibition of pup-ylation using Mtb PanB substrate by SDS-PAGE analysis
T3 sequence (P9WNU7 whole entry): T1 sequence (whole entry)

Pup--protein ligase [11] = biological target: T4, Pup--protein ligase (Corynebacterium glutamicum, UniProt Q8NQE1); experiment: Activation of Corynebacterium glutamicum PafA expressed in Escherichia coli BL-21(DE3) assessed as pup-ylation using Mtb KasA substrate by SDS-PAGE analysis
T4 sequence (Q8NQE1 whole entry): T2 sequence (whole entry)

Pup--protein ligase [12] = biological target: T4, Pup--protein ligase; experiment: Activation of Corynebacterium glutamicum PafA expressed in Escherichia coli BL-21(DE3) assessed as pup-ylation using Mtb PanB substrate by SDS-PAGE analysis
[13] = biological target: T1, Pup--protein ligase (Mycobacterium tuberculosis); experiment: Activation of Mycobacterium tuberculosis PafA expressed in Escherichia coli BL-21(DE3) assessed as pup-ylation using Mtb PanB substrate at 20 uM by SDS-PAGE analysis; conditions: filed as activator
[14] = biological target: T1, Pup--protein ligase (Mycobacterium tuberculosis); experiment: Activation of Mycobacterium tuberculosis PafA expressed in Escherichia coli BL-21(DE3) assessed as pup-ylation using Mtb PknB substrate at 20 uM by SDS-PAGE analysis; conditions: filed as activator
[15] = biological target: T1, Pup--protein ligase (Mycobacterium tuberculosis); experiment: Activation of Mycobacterium tuberculosis PafA expressed in Escherichia coli BL-21(DE3) assessed as pup-ylation using Mtb InhA substrate at 20 uM by SDS-PAGE analysis; conditions: filed as activator
[16] = biological target: T1, Pup--protein ligase (Mycobacterium tuberculosis); experiment: Activation of Mycobacterium tuberculosis PafA expressed in Escherichia coli BL-21(DE3) assessed as pup-ylation using Mtb DHFR substrate at 20 uM by SDS-PAGE analysis; conditions: filed as activator
[17] = biological target: T1, Pup--protein ligase (Mycobacterium tuberculosis); experiment: Activation of Mycobacterium tuberculosis PafA expressed in Escherichia coli BL-21(DE3) assessed as pup-ylation using Mtb KasA substrate at 20 uM by SDS-PAGE analysis; conditions: filed as activator

In the case of `Oc1ccccc1Sc1cc(Cl)cc(Cl)c1`, the inhibition [1] is reported as “Active”.
In the case of `O=C(O)/C=C/c1ccc(-c2ccc(O)c(C34CC5CC(CC(C5)C3)C4)c2)cc1` [ADAROTENE], the inhibition [2] is reported as “Active”, the inhibition [3] is reported as “Active” and the inhibition [4] is reported as “Active”. For the same compound, the inhibition [5] was “Active”, the ΔTm [6] was 2.5 °C and the inhibition [7] was “Active”. The Activity [8] was “Active”, the MIC90 [9] was 164 µM (≈ 61.4 µg/mL) and the inhibition [1] was “Active”. For the same compound, the IC50 (Pup--protein ligase [10]) was 17.9 µM.
For `COCCn1c2c([n+](Cc3cnccn3)c1C)C(=O)c1ccccc1C2=O` [SEPANTRONIUM], the EC50 (Pup--protein ligase [11]) was 2 µM and the EC50 (Pup--protein ligase [12]) was 1.7 µM.
`Oc1ccccc1Sc1cc(Cl)cc(Cl)c1Cl` was tested, and the inhibition [1] was “Active”.
For `Oc1c(Cl)cc(Cl)cc1Sc1cc(Cl)cc(Cl)c1O` [BITHIONOL], the MIC90 [9] was 89.9 µM (≈ 32 µg/mL), the inhibition [1] was “Active” and the IC50 (Pup--protein ligase [10]) was 15.9 µM.
`COCC[n+]1c2c(n(Cc3cnccn3)c1C)C(=O)c1ccccc1C2=O` was tested, and the Activity [13] was “Active”, the Activity [14] was “Active” and the Activity [15] was “Active”. For the same compound, the Activity [16] was “Active” and the Activity [17] was “Active”.
`Oc1ccc(Cl)cc1Sc1cc(Cl)cc(Cl)c1` was tested, and the inhibition [1] was “Active”.
